Patent publication US8691818B2, “Cyclic triazo and diazo sodium channel blockers” (University Of Greenwich, priority 2008, dated 2014)
Where two headings read alike, the source gives them in different places.

Legend:
sodium channel = assay: [14C]guanidine flux: veratrine-evoked uptake of [14C]guanidine into rat forebrain synaptosomes (primary sodium channel assay); assay type: biochemical; conditions: 30° for 2½ min
In short: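 Synaptosomal fraction from male Wistar rat forebrain (without cerebellum/medulla), 20-25 mg wet weight/ml. Veratrine-evoked [14C]guanidine uptake at 30° for 2½ min across a compound concentration range; IC50 from concentration-effect curves, mean±sem.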

[1] = biological target: T1, DiHydroFolate Reductase (DHFR) (Rattus norvegicus, UniProt Q920D2); assay: Inhibition of binding of [3H]methotrexate to rat liver homogenate supernatant; conditions: for inhibition at 125 µM: read-out: [3H]mtx binding (% inhibition @ 125 μM); for inhibition at 99 µM: read-out: [3H]mtx binding % inhibition (* 99 μM, *** uses fresh batch of supernatant), 99 μM, fresh batch of supernatant
T1 construct: from tissue; host or cells: rat liver homogenate supernatant
T1 sequence (Q920D2 1-187): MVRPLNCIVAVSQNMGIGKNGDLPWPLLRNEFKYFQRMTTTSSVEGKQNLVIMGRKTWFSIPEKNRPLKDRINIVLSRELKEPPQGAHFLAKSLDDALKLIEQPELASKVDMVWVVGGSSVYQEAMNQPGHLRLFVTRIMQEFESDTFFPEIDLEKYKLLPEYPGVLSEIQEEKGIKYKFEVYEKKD
In short: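 Displacement of [3H]methotrexate binding to rat liver homogenate supernatant, prepared at 4 °C in pH 6.0 phosphate buffer with 15 mM dithiothreitol. Values are mean±sem over the number of experiments shown.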

hERG = hERG (Homo sapiens, UniProt Q12809); assay: hERG: inhibition of binding of [3H]astemizole to HEK-293 cells expressing human recombinant hERG; conditions: for hERG % inhibition @ 10 μM: [3H]astemizole binding; for inhibition at 10 µM: human, probe [3H]astemizole
Chain of hERG (Q12809 whole entry): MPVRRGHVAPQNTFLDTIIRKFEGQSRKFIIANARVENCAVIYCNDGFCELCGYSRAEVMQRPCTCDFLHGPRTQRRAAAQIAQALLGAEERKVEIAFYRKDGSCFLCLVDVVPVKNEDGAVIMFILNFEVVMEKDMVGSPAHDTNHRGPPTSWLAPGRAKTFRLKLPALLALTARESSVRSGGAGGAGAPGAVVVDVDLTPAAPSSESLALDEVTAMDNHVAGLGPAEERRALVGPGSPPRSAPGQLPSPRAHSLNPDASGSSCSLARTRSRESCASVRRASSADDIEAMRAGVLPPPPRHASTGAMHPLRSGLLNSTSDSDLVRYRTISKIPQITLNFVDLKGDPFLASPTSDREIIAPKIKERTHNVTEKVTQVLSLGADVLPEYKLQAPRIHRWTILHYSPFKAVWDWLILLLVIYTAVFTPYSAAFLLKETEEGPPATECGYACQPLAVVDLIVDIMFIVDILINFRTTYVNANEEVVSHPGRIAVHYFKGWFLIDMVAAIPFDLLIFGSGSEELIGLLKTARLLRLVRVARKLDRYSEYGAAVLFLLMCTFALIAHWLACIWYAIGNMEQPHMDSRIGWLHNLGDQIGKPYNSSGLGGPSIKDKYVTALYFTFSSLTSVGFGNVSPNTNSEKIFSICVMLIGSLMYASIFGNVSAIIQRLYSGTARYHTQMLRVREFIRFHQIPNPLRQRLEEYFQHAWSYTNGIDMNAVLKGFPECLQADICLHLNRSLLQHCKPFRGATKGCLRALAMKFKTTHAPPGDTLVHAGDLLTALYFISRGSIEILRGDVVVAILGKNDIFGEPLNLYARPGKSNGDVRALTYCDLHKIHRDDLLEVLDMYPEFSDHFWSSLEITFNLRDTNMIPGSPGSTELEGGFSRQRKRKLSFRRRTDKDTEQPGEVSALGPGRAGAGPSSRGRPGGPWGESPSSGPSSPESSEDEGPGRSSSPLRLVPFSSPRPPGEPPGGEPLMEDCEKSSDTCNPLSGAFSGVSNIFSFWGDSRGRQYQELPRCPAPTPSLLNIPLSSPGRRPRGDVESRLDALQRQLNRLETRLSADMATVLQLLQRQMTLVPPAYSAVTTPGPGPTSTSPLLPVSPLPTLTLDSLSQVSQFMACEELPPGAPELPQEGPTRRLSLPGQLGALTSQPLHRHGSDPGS

[2] = read-out: hERG IC50 (μM) (extrapolated from 10 μM inh'n), extrapolated assuming binding slope 1.0

Compound | IC50 (sodium channel) [µM] | inhibition at 125 µM ([1]; 125 μM) [%] | melting point | further results
3,5-Diamino-6-[1-(2,5-dimethoxynaphthyl)-1,2,4-triazine [CEN-157] | 204 | – | – | [3H]mtx binding (% inhibition @ 125 μM) ([1]; 125 μM): −1%; hERG % inhibition @ 10 μM (hERG): 6%; IC50 (hERG; [2]): 157 µM
Nc1ncc(-c2cccc(Cl)c2Cl)c(N)n1 [CEN-41, 2,4-Diamino-5-(2,3-dichlorophenyl)pyrimidine] | 60.3 | 76 | 289 to 291 °C | IC50 (hERG): > 200 µM; inhibition at 10 µM (hERG): -3%
CCn1nc(-c2cccs2)c(N)nc1=N [CEN-62, 5(3)-Amino-6-(2-thienyl)-2,3(2,5)-dihydro-3(5)-imino-2-ethyl-1,2,4-triazine methanesulfonate] | 141 | 46 | – | IC50 (hERG): > 200 µM; inhibition at 10 µM (hERG): -13%
CCn1nc(-c2ccc3ccccc3c2)c(N)nc1=N [CEN-75, 5(3)-Amino-6-(2-naphthyl)-2,3(2,5)-dihydro-3(5)-imino-2-ethyl-1,2,4-triazine methanesulfonate] | 49 | 5 | – | IC50 (hERG): 3 µM; inhibition at 10 µM (hERG): 78%
Cn1nc(-c2ccc3ccccc3c2)c(N)nc1=N [CEN-76, 5(3)-Amino-6-(2-naphthyl)-2,3(2,5)-dihydro-3(5)-imino-2-methyl-1,2,4-triazine methanesulfonate] | 77.6 | 6 | – | IC50 (hERG): 4 µM; inhibition at 10 µM (hERG): 74%
CS(=O)(=O)O.Cn1nc(C23CC4CC(CC(C4)C2)C3)c(N)nc1=N [CEN-100, 6-Adamantyl-5(3)-amino-2,3(2,5)-dihydro-3(5)-imino-2-methyl-1,2,4-triazine methanesulfonate] | 77.6 | – | – | [3H]mtx binding (% inhibition @ 125 μM) ([1]; 125 μM): 10%; hERG % inhibition @ 10 μM (hERG): 30%; IC50 (hERG; [2]): 23 µM
Cn1nc(-c2cccc3c2CCCC3)c(N)nc1=N [CEN-120, 5(3)-Amino-6-[1-(5,6,7,8-tetrahydronaphthyl)]-2,3(2,5)-dihydro-3(5)-imino-2-methyl-1,2,4-triazine methanesulfonate] | 195 | 18 | – | IC50 (hERG): 157 µM; inhibition at 10 µM (hERG): 6%
Nc1nnc2c3ccccc3c3ccccc3c2n1 [CEN-128] | 251 | – | – | inhibition at 125 µM [1]: 0%; IC50 (hERG): 53 µM; inhibition at 10 µM (hERG): 16%
Nc1nnc(-c2ccc(Cl)s2)c(N)n1 [CEN-138, 3,5-Diamino-6-[2-(5-chlorothienyl)]-1,2,4-triazine] | > 2000 | 67 | 312 to 314 °C | –
COc1cc2ccccc2cc1-c1nnc(N)nc1N [CEN-139] | 288 | 46 | 252 to 254 °C | –
CCOc1cc2ccccc2cc1-c1nnc(N)nc1N [CEN-141] | 288 | 30 | 212 to 214 °C | –
Nc1nnc(-c2ccccc2OC(F)F)c(N)n1 [CEN-142] | > 2000 | 12 | 154 to 155 °C | –
COc1ccc2cc(OC)c(-c3nnc(N)nc3N)cc2c1 [CEN-143] | > 2000 | 27 | 274 to 276 °C | –
Nc1nnc(-c2cccc(OCc3ccc(Cl)cc3Cl)c2)c(N)n1 [CEN-144, 3,5-Diamino-6-[3-(2,4-dichlorobenzyloxyphenyl)]-1,2,4-triazine] | 57.5 | 96 | 164 to 166 °C | –
Nc1nnc(C2(c3ccc(Cl)cc3)CCCCC2)c(N)n1 [CEN-145, 3,5-Diamino-6-[1-(4-chlorophenyl)-1-cyclohexyl]-1,2,4-triazine] | 9.6 | 39 | 205 to 207 °C | –
CC(c1ccccc1)(c1ccccc1)c1nnc(N)nc1N [CEN-147, 3,5-Diamino-6-(1,1-diphenylethyl)-1,2,4-triazine] | 60.3 | 4 | 197 to 199 °C | –
Nc1nnc(C2(c3ccc(Cl)cc3)CCCC2)c(N)n1 [CEN-148, 3,5-Diamino-6-[1-(4-chlorophenyl)-1-cyclopenty]-1,2,4-triazine] | 20.4 | 38 | 184 to 186 °C | –
COc1cc(-c2nnc(N)nc2N)c(OC)c2ccccc12 [CEN-151] | 67.6 | 76 | 142 to 144 °C | –

Compound | IC50 (sodium channel) [µM] | inhibition at 125 µM ([1]; 125 μM) [%] | melting point | further results
Nc1nnc(C(c2ccccc2)(c2ccccc2)c2ccccc2)c(N)n1 [CEN-153, 3,5-Diamino-6-(triphenylmethy)-1,2,4-triazine] | 50.1 | 2 | 124 to 126 °C | –
Nc1nnc(C2(c3ccc(Cl)cc3)CC2)c(N)n1 [CEN-154, 3,5-Diamino-6-[1-(4-chlorophenyl)-1-cyclopropyl]-1,2,4-triazine] | 162 | 13 | 157 to 159 °C | –
Nc1nnc(-c2cccc(-c3ccccc3)c2)c(N)n1 [CEN-159, 3,5-Diamino-6-(3-phenylphenyl)-1,2,4-triazine] | 44 | 97 | 215 to 217 °C (dec.) | –
Cn1nc(-c2cccc(-c3ccccc3)c2)c(N)nc1=N [CEN-161, 5(3)-Amino-6-(3-biphenyl)-2,3(2,5)-dihydro-3(5)-imino-2-methyl-1,2,4-triazine methanesulfonate] | 16 | -7 | – | IC50 (hERG): 1 µM; inhibition at 10 µM (hERG): 88%
COc1ccc2cc(C(C)c3nnc(N)nc3N)ccc2c1 (stereo not shown) [CEN-165, 3,5-Diamino-6-[1-(6-methoxynaphthalene)ethy)-1,2,4-triazine] | 372 | – | – | [3H]mtx binding (% inhibition @ 125 μM) ([1]; 125 μM): −4%; hERG % inhibition @ 10 μM (hERG): 23%; IC50 (hERG; [2]): 34 µM
Nc1nnc(-c2cc(C(F)(F)F)ccc2Cl)c(N)n1 [CEN-169, 3,5-Diamino-6-(2-chloro 5 trifluoromethylphenyl)-1,2,4-triazine] | 347 | 95 | 238 to 239 °C | –
Nc1nnc(-c2cc(Cl)cc(C(F)(F)F)c2)c(N)n1 [CEN-172, 3,5-Diamino-6-(3-chloro-5-trifluoromethylphenyl)-1,2,4-triazine] | 234 | 100 | 249 to 251 °C | –
Nc1nnc(-c2ccc(Cl)nc2Cl)c(N)n1 [CEN-174, 3,5-Diamino-6-[3-(2,6-dichloropyidyl)]-1,2,4-triazine] | 589 | 4 | – | IC50 (hERG): 101 µM; inhibition at 10 µM (hERG): 9%
CS(=O)(=O)c1ccc(-c2nnc(N)nc2N)c(Cl)c1 [CEN-179, 3,5-Diamino-6-[2-chloro-4-(methylsulphonyl)phenyl]-1,2,4-triazine] | > 2000 | -1 | 286 to 288 °C | –
CC(C)(C)c1ccc(-c2nnc(N)nc2N)cc1 [CEN-181, 3,5-Diamino-6-(4-tertbutylphenyl)-1,2,4-triazine] | 74 | 101 | 275 to 276 °C | –
CCCCc1ccc(-c2nnc(N)nc2N)cc1 [CEN-183, 3,5-Diamino-6-(4-n-butylphenyl)-1,2,4-triazine] | 39 | 106 | 184 to 186 °C | –
Nc1nnc(-c2cccc(OCc3c(Cl)cccc3Cl)c2)c(N)n1 [CEN-185, 3,5-Diamino-6-[3-(2,6-dichlorobenzyloxy)phenyl]-1,2,4-triazine] | 3 | 90 | 190 to 192 °C | –
CC(C)(C)c1cc(-c2nnc(N)nc2N)cc(C(C)(C)C)c1 [CEN-187, 3,5-Diamino-6-(3,5-di-tert-butylphenyl)-1,2,4-triazine] | 447 | 99 | 278 to 280 °C | –
CCn1nc(-c2cc(C(C)(C)C)cc(C(C)(C)C)c2)c(N)nc1=N [CEN-189, 5(3)-Amino-6-(3,5 bis-tert-butylphenyl)-2,3(2,5)-dihydro-3(5)-imino-2-ethyl-1,2,4-triazine methanesulphonate] | 468 | 2 | – | IC50 (hERG): 90 µM; inhibition at 10 µM (hERG): 10%
COc1cc(OC)cc(-c2nnc(N)nc2N)c1 [CEN-192, 3,5-Diamino-6-(3,5-dimethoxyphenyl)-1,2,4-triazine] | > 2000 | – | 225 to 228 °C | inhibition at 99 µM [1]: 91%
Nc1nnc(-c2cc(OCC(F)(F)F)cc(OCC(F)(F)F)c2)c(N)n1 [CEN-193, 3,5-Diamino-6-[3,5-bis(2,2,2-trifluoroethoxy)phenyl]-1,2,4-triazine] | 135 | – | 185 to 187 °C | inhibition at 99 µM [1]: 99%
Nc1nnc(-c2cc(C(F)(F)F)cc(Cl)c2F)c(N)n1 [CEN-197, 3,5-Diamino-6-(3-chloro-2-fluoro-5-trifluoromethylphenyl)-1,2,4-triazine] | 91 | – | 218 to 220 °C | inhibition at 99 µM [1]: 95%
